Experimental data: patent US4847247A, “Penicillin derivatives as anti-inflammatory and antidegenerative agents” (Merck & Co., Inc., priority 1986, dated 1989)
Read-outs that look alike come from different tables or passages of the source.

Molecular target: T1, Human Polymorphonuclear Leukocyte Elastase (Homo sapiens, UniProt P08246)
T1 construct: Crude extract of human polymorphonuclear leukocytes (PMN) containing elastase activity; endogenous in cells; host or cells: human polymorphonuclear leukocytes (crude extract)
T1 sequence (P08246 30-247 limits assumed): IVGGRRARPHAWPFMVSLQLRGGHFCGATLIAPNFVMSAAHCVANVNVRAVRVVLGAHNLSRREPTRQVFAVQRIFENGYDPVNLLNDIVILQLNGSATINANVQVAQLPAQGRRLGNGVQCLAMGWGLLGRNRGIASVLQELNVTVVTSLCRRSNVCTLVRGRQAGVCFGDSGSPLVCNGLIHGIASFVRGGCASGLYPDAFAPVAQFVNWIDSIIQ
Experiment: Inhibition of human polymorphonuclear leukocyte (granulocyte) elastase via hydrolysis of Boc-AAPAN
Assay type: biochemical
Method: Enzyme assay for the Inhibition of Human Polymorphonuclear Leukocyte Elastase Via Hydrolysis of N-t-Boc-alanyl-alanyl-prolylalanine-p-nitroanilide
0.05M TES (N-tris[hydroxymethyl]methyl-2-amino-ethanesulfonic acid) buffer, pH 7.5.
0.2 mM N-t-Boc-alanyl-alanyl-prolyl-alanine-p-nitroanilide (Boc-AAPAN).
To prepare substrate, the solid (m.w. 550) was first dissolved in 10.0 ml DMSO. Buffer at pH 7.5 was then added to a final volume of 100 ml.
Crude extract of human polymorphonuclear leukocytes (PMN) containing elastase activity.
Inhibitors (cephalosporin sulfoxide esters) to be tested dissolved in DMSO just before use.
To 1.0 ml of 0.2 mM Boc-AAPAN in a cuvette, 0.01-0.1 ml of DMSO with or without inhibitor was added. After mixing, a measurement was taken at 410 mμ to detect any spontaneous hydrolysis due to of test compound. 0.05 Milliliters of PMN extract was then added and the αOD/minute at 410 mμ was measured and recorded. Beckman model 35 spectrophotometer was used.
The elastase activity in the crude PMN extract may vary from one preparation to another. A control of each new batch is run, and the volume added in the assay procedure is adjusted according to activity.

[1] = crude human PMN extract, 0.2 mM Boc-AAPAN, pH 7.5, 410 mμ, 2 minutes after zero time, read-out: IC50 (dosage for 50% inhibition of the enzyme activity) (converted)

SMILES: CC(O)[C@H]1C(=O)N2[C@@H]1SC(C)(C)[C@@H]2C(=O)OCc1ccccc1 (stereo partly drawn) [6α-CH3 CH(OH) / 0 / OBZ]
- IC50 [1]: 59.6 µM

SMILES: CN(C(=O)C(F)(F)F)[C@H]1C(=O)N2[C@@H]1SC(C)(C)[C@@H]2C(=O)OCc1ccccc1 [6α-CF3 CON(CH3) / 0 / OBZ, benzyl 6α-(N-methyltrifluoroacetamido)penicillinate]
- IC50 [1]: 7.2 µM

SMILES: COc1ccc(CNC(=O)[C@@H]2N3C(=O)[C@@H](NC(=O)C(F)(F)F)[C@H]3S(=O)(=O)C2(C)C)cc1 [6β-CF3 (CO)NH / 2 / NHBZ(p-OCH3)]
- IC50 [1]: 0.647 µM

SMILES: CC1(C)[C@H](C(=O)OCc2ccccc2)N2C(=O)C(OC(=O)COc3ccccc3)[C@H]2[S+]1[O-] (some centres unmarked) [C6 H5 OCH2 COO / 1 / OBZ]
- IC50 [1]: 10.9 µM

SMILES: CC1(C)[C@H](C(=O)OCc2ccc(C(=O)O)cc2)N2C(=O)[C@H](NC(=O)C(F)(F)F)[C@H]2S1(=O)=O [6α-CF3 (CO)NH / 2 / OBZ(p-COOH)]
- IC50 [1]: 0.0836 µM

SMILES: Cc1ccc(S(=O)(=O)N[C@H]2C(=O)N3[C@@H]2SC(C)(C)[C@@H]3C(=O)OCc2ccccc2)cc1 [6α-(TS)NH / 0 / OBZ]
- IC50 [1]: 0.217 µM

SMILES: CC1(C)S[C@@H]2C(OC(=O)COc3ccccc3)C(=O)N2[C@H]1C(=O)OCc1ccccc1 (some centres unmarked) [C6 H5 OCH2 COO / 0 / OBZ]
- IC50 [1]: 45.3 µM

SMILES: CC1(C)[C@H](C(=O)OCc2ccc(C(=O)O)cc2)N2C(=O)[C@@H](NC(=O)C(F)(F)F)[C@H]2S1(=O)=O [6β-CF3 (CO)NH / 2 / OBZ(p-COOH)]
- IC50 [1]: 2.09 µM

SMILES: CCO[C@H]1C(=O)N2[C@@H](C(=O)OCc3ccccc3)C(C)(C)S(=O)(=O)[C@H]12 [6α-OC2 H5 / 2 / OBZ, Benzyl 6α-ethoxypenicillanate-1,1-dioxide]
- IC50 [1]: 5.44 µM

SMILES: CO[C@H]1C(=O)N2[C@@H](C(=O)OCc3ccccc3)C(C)(COC(C)=O)S(=O)(=O)[C@H]12 (stereo partly drawn) [α-CH3 O / 2 / OBZ]
- IC50 [1]: 9.72 to 14.6 µM

SMILES: CC(=O)O[C@H]1C(=O)N2[C@@H](C(=O)OCc3ccccc3)C(C)(C)S(=O)(=O)[C@H]12 [CH3 COO / 2 / OBZ, Benzyl 6α-acetoxypenicillanate-1,1-dioxide]
- IC50: 0.524 µM

SMILES: CC(=O)O[C@H]1C(=O)N2[C@@H]1SC(C)(C)[C@@H]2C(=O)OCc1ccccc1 [CH3 COO / 0 / OBZ]
- IC50 [1]: 28.6 µM

SMILES: CN(CC(=O)O)C(=O)[C@@H]1N2C(=O)[C@H](NC(=O)C(F)(F)F)[C@H]2S(=O)(=O)C1(C)C [6α-CF3 (CO)NH / 2 / N(CH3)(CH2 COOH)]
- IC50 [1]: 12 µM

SMILES: CC1(C)[C@H](C(=O)c2ccccc2)N2C(=O)[C@@H](NC(=O)C(F)(F)F)[C@H]2S1(=O)=O [6β-CF3 CONH / 2 / Ph]
- IC50 [1]: 2.47 µM

SMILES: CC1(C)[C@H](C(=O)OCc2ccccc2)N2C(=O)[C@H](COC(=O)NCc3ccccc3)[C@H]2S1(=O)=O [6α-CH2 O(CO)NH(BZ) / 2 / OBZ]
- IC50: 8.22 µM

SMILES: CC1(C)S[C@@H]2[C@H](NC(=O)C(F)(F)F)C(=O)N2[C@H]1C(=O)OCc1ccccc1 [6β-CF3 CONH / 0 / OBZ, benzyl 6β-trifluoroacetamidopenicillanate]
- IC50 [1]: 29.8 µM

SMILES: CC1(C)[C@H](C(=O)OCC(F)(F)F)N2C(=O)[C@H](NC(=O)C(F)(F)F)[C@H]2S1(=O)=O [6α-CF3 CONH / 2 / OCH2 CF3]
- IC50 [1]: 0.235 µM

SMILES: CC(C)(C)OC(=O)c1ccc(COC(=O)[C@@H]2N3C(=O)[C@@H](NC(=O)C(F)(F)F)[C@H]3S(=O)(=O)C2(C)C)cc1 [6β-CF3 (CO)NH / 2 / OBZ(p-COOtBu)]
- IC50 [1]: 0.935 µM

SMILES: CO[C@]1(NC(=O)C(F)(F)F)C(=O)N2[C@@H](C(=O)OCc3ccccc3)C(C)(C)S(=O)(=O)[C@@H]21 [α-CF3 CONH / β-CH3 O / 2 / OBZ]
- IC50 [1]: 1.72 µM

SMILES: CC[C@@]1(NC(=O)C(F)(F)F)C(=O)N2[C@@H](C(=O)OCc3ccccc3)C(C)(C)S(=O)(=O)[C@@H]21 [β-CF3 CONH / α-C2 H5 / 2 / OBZ, benzyl 6α-ethyl-6β-trifluoroacetamidopenicillanate-1,1-dioxide]
- IC50 [1]: 6.49 µM

SMILES: CC(=O)O[C@H]1C(=O)N2[C@@H]1[S+]([O-])C(C)(C)[C@@H]2C(=O)OCc1ccccc1 (some centres unmarked) [CH3 COO / 1 / OBZ]
- IC50 [1]: 13.7 µM

SMILES: Cc1ccc(S(=O)(=O)C[C@H]2C(=O)N3[C@@H]2[S+]([O-])C(C)(C)[C@@H]3C(=O)OCc2ccccc2)cc1 (stereo partly drawn) [6α-(TS)CH2 / 1 / OBZ]
- IC50 [1]: 8.41 µM

SMILES: CC1(C)[C@H](C(=O)OCc2ccccc2)N2C(=O)C(OC(=O)Cc3ccccc3)[C@H]2S1(=O)=O (some centres unmarked) [(BZ)COO / 2 / OBZ]
- IC50 (read-out: IC50 (dosage for 50% inhibition of the enzyme activity), crude human PMN extract, 0.2 mM Boc-AAPAN, pH 7.5, 410 mμ, 2 minutes after zero time): 8.74 µM

SMILES: CCO[C@H]1C(=O)N2[C@@H](C(=O)OCc3ccc(C(=O)O)cc3)C(C)(C)S(=O)(=O)[C@H]12 [6α-OC2 H5 / 2 / OBZ(p-COOH)]
- IC50: 1.46 µM

SMILES: CO[C@@]1(NC(=O)C(F)(F)F)C(=O)N2[C@@H](C(=O)OCc3ccccc3)C(C)(C)S(=O)(=O)[C@@H]21 [β-CF3 CONH / α-CH3 O / 2 / OBZ]
- IC50 [1]: 19.4 µM

SMILES: CO[C@H]1C(=O)N2[C@@H]1[S+]([O-])C(C)(COC(C)=O)[C@@H]2C(=O)OCc1ccccc1 (stereo partly drawn) [α-CH3 O / 1 / OBZ]
- IC50 [1]: 10.1 µM

SMILES: CC1(C)[C@H](C(=O)OCc2ccc(C(=O)O)cc2)N2C(=O)[C@H](NC(=O)C(F)(F)F)[C@H]2[S+]1[O-] (stereo partly drawn) [6α-CF3 (CO)NH / 1 / OBZ(p-COOH)]
- IC50 [1]: 1.08 µM

SMILES: CN(Cc1ccc(C(=O)O)cc1)C(=O)[C@@H]1N2C(=O)[C@H](NC(=O)C(F)(F)F)[C@H]2S(=O)(=O)C1(C)C [6α-CF3 (CO)NH / 2 / N(CH3)BZ(p-COOH)]
- IC50 [1]: 1.42 µM

SMILES: CC1(C)S[C@@H]2[C@H](COC(=O)NCc3ccccc3)C(=O)N2[C@H]1C(=O)OCc1ccccc1 [6β-CH2 O(CO)NH(BZ) / 0 / OBZ]
- IC50 [1]: 33 µM

SMILES: Cc1ccc(S(=O)(=O)C[C@H]2C(=O)N3[C@@H](C(=O)OCc4ccccc4)C(C)(C)S(=O)(=O)[C@H]23)cc1 [6α-(TS)CH2 / 2 / OBZ]
- IC50 [1]: 0.61 µM

SMILES: CN(Cc1ccccc1)C(=O)[C@@H]1N2C(=O)[C@@H](NC(=O)C(F)(F)F)[C@H]2S(=O)(=O)C1(C)C [6β-CF3 (CO)NH / 2 / N(CH3)(BZ), 2,2-Dimethyl-6-(trifluoro-acetamido)-3-(N-methyl-N-benzylcarbamoyl)penam-1,1-dioxide]
- IC50 [1]: 4.47 µM

SMILES: CC(OC(=O)N(Cc1ccccc1)C(=O)NCc1ccccc1)[C@H]1C(=O)N2[C@@H](C(=O)OCc3ccccc3)C(C)(C)S(=O)(=O)[C@H]12 (some centres unmarked) [drawing 30 / 2 / OBZ]
- IC50 [1]: 0.0789 µM

SMILES: CC(OC(=O)OCc1ccc([N+](=O)[O-])cc1)[C@H]1C(=O)N2[C@@H](C(=O)OCc3ccccc3)C(C)(C)S(=O)(=O)[C@H]12 (some centres unmarked) [drawing 27 / 2 / OBZ]
- IC50 [1]: 0.366 µM

SMILES: CN(Cc1ccccc1)C(=O)[C@@H]1N2C(=O)[C@@H](NC(=O)C(F)(F)F)[C@H]2SC1(C)C [6β-CF3 (CO)NH / 0 / N(CH3)(BZ), 2,2-diimethyl-6-(trifluoroacetamido)-3-(N-methyl-N-benzylcarbamoyl)penam]
- IC50 [1]: 1.44 µM

SMILES: Cc1ccc(S(=O)(=O)OC2C(=O)N3[C@@H]2[S+]([O-])C(C)(C)[C@@H]3C(=O)OCc2ccccc2)cc1 (some centres unmarked) [p-CH3 C6 H4 SO2 O(TsO) / 1 / OBZ]
- IC50 [1]: 4.19 µM

SMILES: CO[C@H]1C(=O)N2[C@@H](C(=O)OCC(F)(F)F)C(C)(C)S(=O)(=O)[C@H]12 [6α-OCH3 / 2 / OCH2 CF3]
- IC50 [1]: 11.6 µM

SMILES: CN(C(=O)C(F)(F)F)[C@H]1C(=O)N2[C@@H](C(=O)OCc3ccccc3)C(C)(C)S(=O)(=O)[C@H]12 [6α-CF3 CON(CH3) / 2 / OBZ, Benzyl 6α-(N-methyltrifluoroacetamido)penicillanate-1,1-dioxide]
- IC50: 0.446 µM

SMILES: CO[C@H]1C(=O)N2[C@@H]1SC(C)(COC(C)=O)[C@@H]2C(=O)OCc1ccccc1 (stereo partly drawn) [α-CH3 O / 0 / OBZ]
- IC50 [1]: 13.2 µM

SMILES: CN(C(=O)C(F)(F)F)[C@H]1C(=O)N2[C@@H]1[S+]([O-])C(C)(C)[C@@H]2C(=O)OCc1ccccc1 (stereo partly drawn) [6α-CF3 CON(CH3) / 1 / OBZ]
- IC50 [1]: 6.94 µM

SMILES: Cc1ccc(S(=O)(=O)OC2C(=O)N3[C@@H](C(=O)OCc4ccccc4)C(C)(C)S(=O)(=O)[C@H]23)cc1 (some centres unmarked) [p-CH3 C6 H4 SO2 O(TsO) / 2 / OBZ]
- IC50: 0.101 µM

SMILES: CO[C@H]1C(=O)N2[C@@H](C(=O)Cc3ccccc3)C(C)(C)S(=O)(=O)[C@H]12 [6α-OCH3 / 2 / BZ]
- IC50 [1]: 5.93 µM

SMILES: CC1(C)S[C@@H]2[C@@H](NC(=O)C(F)(F)F)C(=O)N2[C@H]1C(=O)OCc1ccccc1 [6α-CF3 CONH / 0 / OBZ, Benzyl 6α-trifluoroacetamidopenicillanate]
- IC50 [1]: 9.94 µM

SMILES: CN(CC(=O)OC(C)(C)C)C(=O)[C@@H]1N2C(=O)[C@H](NC(=O)C(F)(F)F)[C@H]2S(=O)(=O)C1(C)C [6α-CF3 (CO)NH / 2 / N(CH3)(CH2 COOtBu)]
- IC50 [1]: 1.48 µM

SMILES: CC1(C)[C@H](C(=O)OCc2ccccc2)N2C(=O)[C@H](NC(=O)C(F)(F)F)[C@H]2S1(=O)=O [6α-CF3 CONH / 2 / OBZ, Benzyl 6α-trifluoroacetamidopenicillanate-1,1-dioxide]
- IC50: 0.345 µM
